Measurements: patent US8354265B2, “Chemicals promoting the growth of N-acylhomoserine lactone-degrading bacteria” (Centre National de la Recherche Scientifique, priority 2007, dated 2013)
Entries after “also recorded” stand apart in the source; their conditions may differ.

Tests used:
[1] = tested on: NAHL-degrading bacteria in the nutritive solution; assay: Ratio of NAHL-degrading bacteria in unplanted batches of nutritive solution; assay type: cell-based; conditions: for percentage of NAHL-degrading bacteria in the nutritive solution: without plants
Protocol: (§1) The non sterile batches (40×60×8 cm) contained 13 L of the nutritive solution Hydrobloom (Cellmax, UK) with Nitrogen at 0.80 g/L, Phosphore at 0.56 g/L and Potassium at 1.48 g/L as major components. The solution was diluted from a concentrated stock solution (×250) with non sterile water from the public water system. One hundred plants of Solanum tuberosum var. Allians, which were recovered from cultures performed under sterile conditions, were placed into holes (3 cm space to each other) of batch covers. Planted batches were placed in the greenhouse (Comité Nord Plants de Pomme de Terre, Bretteville-du-Grand-Caux) under natural light at 10-15° C. (night) and 25-30° C. (day). […] An untreated batch was used as a control. One gram of roots (fresh weight) was resuspended in 10 mL of sterile MgSO4 10 mM, diluted and spread on TSA and King B plates to isolate total cultivable bacteria and fluorescent Pseudomonas, respectively. Three samples were analyzed from each batch at each time D0, D14 and D28; from each sample, thirty isolates from TSA plates and thirty fluorescent isolates from King B plates were individually tested from production and inactivation of NAHL signal.
(§2) Bacterial isolates grown in 96-microwell plates were individually tested from production of NAHL with the A. tumefaciens biosensor NT1 (pZNLR4) and the inactivation of the C6-HSL signal, as described previously (d'Angelo-Picard et al. 2004).
Allians was evaluated. The plants were cultivated in vitro under sterile conditions, then placed into batches in a greenhouse at Bretteville-du-Grand-Caux (France) in a non-sterile environment. Especially, a non-sterile nutritive solution was used and served as a source of naturally occurring bacteria. […] The ratio of NAHL-degrading bacteria in the nutritive solution was evaluated before the treatment and 14-day later. This percentage increased from 10±2 to 30±2 in the case of the 6CL-treated batch and from 10±2 to 70±2 in the GCL-treated batch. From the 6CL- and GCL-treated batches, 10 NAHL-degrading bacteria were identified by their rrs sequence: 9 belonged to the Delftia genus, the other one to the Rhodococcus genus.

[2] = tested on: NAHL-degrading rhizobacteria; assay: Diversity of NAHL-degrading rhizobacteria after 6CL and GCL treatments, rrs sequencing (Table 2); assay type: in vivo, Solanum tuberosum
Protocol: as §1
The 5′-end of the rrs gene was amplified with primers pA (5′-[…]) (SEQ ID NO:1) and 518r (5′-[…]) (SEQ ID NO:2), and sequenced with pA primer by GenomeExpress (Meylan, France). At least 400 bp were submitted to the NCBI database. Although some sequence comparisons authorized identification of isolates at the species level, only the genus level was retained in this study for homogeneity.
The isolates were identified by rrs-sequencing (Table 2). At D0, most of the NAHL-degrading isolates were identified as Delftia. However, at D14 and D28, the Agrobacterium isolates dominated in untreated batches, while they were not detected in the treated batches. In those, the more frequently counted bacteria were Delftia and Rhodococcus.

[3] = tested on: bacterial populations of potato roots; assay: DGGE analysis of bacterial populations associated with roots; assay type: in vivo, Solanum tuberosum; conditions: D14 and D28; 0.1 and 0.4 mL/L, most visible at 0.4 mL/L
Protocol: FIG. 11: DGGE analyses. […] Numbered bands on pictures were analyzed by sequencing. For each sequence or group of sequences, one of the closest rrs sequences was indicated. It is identified by its Genbank number, the similarity indice (SI) (calculated at Ribosomal Database Project http://rdp.cme.msu.edu/), and the name and taxonomical position of the bacteria of origin (Bact, Bacteria; BC, Bacteroidetes/Chlorobi group; Firm, Firmicutes; α,α-proteobacteria; β,β-proteobacteria; and γ,γ-proteobacteria).
The structure of the bacterial population associated with roots system (ca. 10 g) was analyzed by DGGE of PCR-amplified rrs region (position 341-534 of E. coli sequence). Two samples were analyzed from each batch. The DGGE analysis was performed by Microbial Insights (Rockford, Tenn., USA), as previously described (d'Angelo-Picard et al., 2004). Band positions in each line were converted to 0 (absence) and 1 (presence) value and assembled in a matrix. Profile similarity was calculated with the Dice algorithm using DistAFLP software (http://pbil.univ-lyon1.fr/ADE-4/microb). Sequence identification of selected bands was performed using the sequence match facility of the Ribosomal Database Project (http://rdp.cme.msu.edu/), according to NCBI taxonomy (http://www.ncbi.nlm.nih.gov/Taxonomy/). […]

[4] = tested on: NAHL-degrading rhizobacteria; assay: Diversity of NAHL-degrading rhizobacteria after 6CL and GCL treatments, rrs sequencing (Table 2); assay type: in vivo, Solanum tuberosum; conditions: isolates of treated batches
[5] = tested on: NAHL-degrading and NAHL-producing bacteria of potato rhizosphere; assay: Two independent analyses of 6CL and GCL treatments on planted batches (FIG. 7); assay type: in vivo, Solanum tuberosum var. Allians
Text: FIG. 7: Percentage of NAHL-degrading and NAHL-producing strains in potato rhizosphere. […] An untreated batch was used as a control in the two independent sets of experiments. The mean of three replicates is shown. Statistically different values (Student t test; 0.05) are noted by different letters.
as §1, §2
An untreated batch was used as a control.

[6] = tested on: Erwinia carotovora subsp. atroseptica 6276; assay: Maceration assay on potato tubers (biocontrol activity of consortia); assay type: in vivo; conditions: potato tubers infected with mix of Erwinia carotovora 6276 and consortia
Text: FIG. 6: Maceration assay on potato tubers.
(§3) The Mannitol-, 6CL-, GCL-, and HTN-consortia were compared for their capacity to inactivated OC8-HSL, the major NAHL produced by the plant pathogen Erwinia carotovora subsp. atroseptica 6276, as well as for their biocontrol activity against this pathogen in potato maceration assay.

bacterial consortia = assay: Inactivation of C6-HSL and OC8-HSL by mannitol, 6CL, GCL and HTN consortia; assay type: cell-based
Text: as §3

[7] = tested on: bacterial consortia originating from rhizospheric soil; assay: C6-HSL inactivation by bacterial consortia enriched from rhizospheric soil; assay type: cell-based
[8] = tested on: bacteria recovered from the consortia; assay: NAHL production and inactivation by isolates recovered from the consortia, with rrs identification; assay type: cell-based
[9] = 6CL- and GCL-treated batches together, rrs sequence

## CCC1CCC(=O)O1 (stereo not shown) [GCL, gamma-caprolactone]
[1]; [9]
  NAHL-degrading bacteria belonging to the Delftia genus (of 10 identified): 9
  NAHL-degrading bacteria belonging to the Rhodococcus genus (of 10 identified): one
[1]; 14-day after treatment at 1 mL/L
  percentage of NAHL-degrading bacteria in the nutritive solution: 70±2%
[1]; before the treatment
  percentage of NAHL-degrading bacteria in the nutritive solution: 10±2%
[2]; D14 and D28, 0.1 mL/L
  rrs-identified NAHL-degraders: Delftia: 16
  rrs-identified NAHL-degraders: Others: 2
  rrs-identified NAHL-degraders: Pseudomonas: 1
  rrs-identified NAHL-degraders: Rhizobium: 1
  rrs-identified NAHL-degraders: Rhodococcus: 60
[2]; D14 and D28, 0.4 mL/L
  rrs-identified NAHL-degraders: Delftia: 9
  rrs-identified NAHL-degraders: Pseudomonas: 1
  rrs-identified NAHL-degraders: Rhodococcus: 96
[2]; after GCL-treatments
  percentage of A. tumefaciens isolates among the NAHL-degrading rhizobacteria: decrease
[3]
  change of bacterial populations by DGGE: drastic remodelling of bacterial populations
[4]
  growth of Delftia and Rhodococcus isolates on the compound as a sole carbon source: grew on GCL as a sole carbon source
[5]; 14 days after application at 0.4 mL/L, two experiments
  cell density (CFU/g of root): consistently increased
[5]; after GCL-treatments
  level of NAHL-degrading bacteria among fluorescent Pseudomonads: no modification
[5]; applied to hydroponic plant cultures (FIG. 7)
  percentage of NAHL-degrading bacteria among total cultivable bacteria: significant increase
[6]
  biocontrol activity of the consortia against E. carotovora 6276: biocontrol activity was observed; also recorded: showed biocontrol activity
Bacterial consortia
  speed of C6-HSL signal inactivation versus Mannitol consortia: inactivated more rapidly
  speed of OC8-HSL signal inactivation versus Mannitol consortia: inactivated more rapidly
[7]
  activity of consortia towards C6-HSL (ranking): the most active
[8]
  NAHL-inactivating bacteria recovered from consortia: recovered
[8]; 6CL and GCL consortia together
  NAHL-degrading isolates related to Chryseobacterium: 10%
  NAHL-degrading isolates related to Delftia: 80 % of the identified strains
  NAHL-degrading isolates related to Ralstonia: 3%
  NAHL-degrading isolates related to Rhodococcus: 7%
[8]; 280 isolates from 280 independent enrichments
  NAHL-producing bacteria among isolates of the consortia: none
